Measured values reported in paper PMC10574767, “Extractives from Artemisia afra with Anti-Bacterial and Anti-Fungal Properties” (Plants, 2023).
In brackets after ≈: the same amount, converted by molar mass.

Columns and labels:
[1] = tested on: Salmonella Typhimurium ATCC 39183; test: Serial dilution microplate MIC; format: cell-based; details: Table 2
Experimental: (§1) The MIC value of the plant extracts and isolated compounds against one fungal and five bacterial strains (Salmonella Typhimurium ATCC 39183, Escherichia coli ATCC 25922, Pseudomonas aeruginosa ATCC 27853, Staphylococcus aureus ATCC 29213, Enterococcus faecalis ATCC 29212, and fungi culture, Candida albicans ATCC 10231) was assessed in triplicate using the serial dilution microplate method; acetone and DMSO were used as solvents. Bacterial cultures were grown in Mueller Hinton broth (Sigma Aldrich, St. Louis, MO, USA) overnight and adjusted to McFarland standard 1 (1 × 10^8 CFU/mL). Then, 100 µL of samples were transferred into the first well of a sterile 96-well microtiter plate, which contained 100 µL of water and a 1:1 serial dilution with sterilized distilled water was carried out. In each well, 100 µL of appropriately adjusted fungal or bacterial cultures were added, and the bacteria were subjected to final concentrations of 250–3.9 μg/mL for pure compounds and 2.5–0.02 mg/mL for crude extracts. Amphotericin-B and Gentamicin (Virbac, Carros, France) served as positive controls for fungi and bacteria, respectively. For sterility, water served as control, while acetone served as a negative control. The microplates were then incubated for 24 h at 37 °C. Following incubation, 40 µL of 0.2 mg/mL p-iodonitrotetrazolium violet (INT, Sigma Aldrich) dissolved in water (hot) was added to the wells before being incubated at 37 °C for another 2 h. In the case of fungi, the INT was added before incubation. The MIC was measured visually as the lowest concentration of the compounds/extracts that inhibited proliferation.

[2] = tested on: Staphylococcus aureus ATCC 29213; test: Serial dilution microplate MIC; format: cell-based; details: Table 2
Experimental: as §1

in vitro = details: monkey, LC50
Experimental: Cytotoxicity of compounds and extracts was tested against mammalian cells using the MTT assay. MCF-7 cancer cells were grown in a 5% CO2 incubator in Dulbecco’s Modified Eagle’s Medium (DMEM, Highveld Biological, Johannesburg, South Africa) supplemented with 10% fetal calf serum (Adcock-Ingram, Johannesburg, South Africa) and 1% penicillin-streptomycin (10,000 U/mL and 10 mg/mL streptomycin, Sigma Aldrich). In a 5% CO2 incubator, Vero cells were grown in a minimal essential medium (MEM, Highveld Biological, South Africa) supplemented with 5% fetal calf serum (Adcock-Ingram) and 0.1% gentamicin (Virbac). Cell suspensions were obtained from 70–80% confluent monolayer cultures and were plated in 96-well cell culture plates at a density of 1 × 10^4. Plates were incubated in a 5% CO2 incubator for 24 h at 37 °C. The cells were exposed to the extracts or compounds dissolved in the media at different concentrations for 48 h. Positive and negative controls were doxorubicin (Pfizer, New York, NYC, USA) and acetone or DMSO, respectively. After that, the wells were rinsed with phosphate-buffered saline (PBS, Sigma) and 200 µL of fresh medium was poured into the wells. Thirty microlitres (5 mg/mL) of MTT (Sigma) dissolved in PBS was added to each well, and the plates were incubated at 37 °C for 4 h. The medium from the wells was removed, rinsed, and 50 µL of 100% DMSO was added to the wells. At a wavelength of 570 nm, absorbance was measured using a microplate reader (BioTek Synergy, Beijing, China). Each sample concentration was tested in quadruplicate in two repeats (n = 8), and the concentration causing 50% inhibition of cell viability (LC50) was calculated. Selectivity index (SI) values for the extracts/compounds were obtained by dividing cytotoxicity LC50 values of normal (Vero) cells by those of the cancer cells.

C. albicans = tested on: C. albicans; parameters: method as in ref 35 = [35]; 35. Naika H.R. Krishna V. Harish B.G. Khadeer Ahamed B.M. Mahadevan K.M. Antimicrobial Activity of Bioactive Constituents Isolated from the Leaves of Naravelia zeylanica (L.) DC Int. J. Res. Pharm. Bi; details: cited from earlier work
Bacillus subtilis = tested on: Bacillus subtilis; parameters: method as in ref 36 = [36]; 36. Koay Y.C. Wong K.C. Hasnah O. Ibrahim E.M.S. Mohammad Z.A. Chemical constituents and biological activities of Strobilanthes crispus L. Rec. Nat. Prod. 2013 7 59 64; details: cited from earlier work
Staphylococcus aureus = tested on: Staphylococcus aureus; parameters: method as in ref 36 = [36]; 36. Koay Y.C. Wong K.C. Hasnah O. Ibrahim E.M.S. Mohammad Z.A. Chemical constituents and biological activities of Strobilanthes crispus L. Rec. Nat. Prod. 2013 7 59 64; details: cited from earlier work
Escherichia coli = tested on: Escherichia coli; parameters: method as in ref 36 = [36]; 36. Koay Y.C. Wong K.C. Hasnah O. Ibrahim E.M.S. Mohammad Z.A. Chemical constituents and biological activities of Strobilanthes crispus L. Rec. Nat. Prod. 2013 7 59 64; details: cited from earlier work
Klebsiella pneumoniae = tested on: Klebsiella pneumoniae; parameters: method as in ref 36 = [36]; 36. Koay Y.C. Wong K.C. Hasnah O. Ibrahim E.M.S. Mohammad Z.A. Chemical constituents and biological activities of Strobilanthes crispus L. Rec. Nat. Prod. 2013 7 59 64; details: cited from earlier work
Salmonella Typhimurium = tested on: Salmonella Typhimurium; parameters: method as in ref 36 = [36]; 36. Koay Y.C. Wong K.C. Hasnah O. Ibrahim E.M.S. Mohammad Z.A. Chemical constituents and biological activities of Strobilanthes crispus L. Rec. Nat. Prod. 2013 7 59 64; details: cited from earlier work
T. mentagrophytes = tested on: T. mentagrophytes; parameters: method as in PMID 19844829, PMID 35453556; details: cited from earlier work
Aspergillus niger = tested on: Aspergillus niger; parameters: method as in PMID 19844829, PMID 35453556; details: cited from earlier work
[3] = tested on: Staphylococcus aureus, Bacillus thuringiensis, Escherichia coli, Enterobacter cloacae, and Klebsiella pneumoniae; parameters: method as in PMID 12120818; details: 1 mg of compound; cited from earlier work
MCF-7 = tested on: MCF-7; parameters: method as in PMID 35453556, PMID 21294076; details: cited from earlier work
MRC-5 = tested on: MRC-5; parameters: method as in PMID 35453556, PMID 21294076; details: cited from earlier work

For `CC1(C)CC[C@]2(C)CC=C3[C@]4(C)CC[C@H]5C(C)(C)[C@@H](O)CC[C@]5(C)[C@H]4CC[C@@]3(C)[C@@H]2C1` [Compound 3β-Taraxerol, 3β-taraxerol], the MIC ([1]; Salmonella enterica, isolated compounds, read-out: Minimum inhibitory concentration (MIC) S. Typhimurium) was 250 µg/mL (≈ 586 µM), the “Selectivity index S. Typhimurium” value ([1]; in brackets, Vero LC50 vs MIC) was over 0.8 and the MIC ([2]; Staphylococcus aureus, ATCC29213, isolated compounds, read-out: Minimum inhibitory concentration (MIC) S. aureus) was 250 µg/mL (≈ 586 µM). For the same molecule, the “Selectivity index S. aureus” value ([2]; in brackets, Vero LC50 vs MIC) was over 0.8, the CC50 at 48 h (in vitro) was over 200 µg/mL and the “Activity against C. albicans” value (C. albicans) was “no activity”. For the same molecule, the “MIC Bacillus subtilis” value (Bacillus subtilis) was 15.6 µg/mL (≈ 36.6 µM), the “MIC Staphylococcus aureus” value (Staphylococcus aureus) was 15.6 µg/mL (≈ 36.6 µM) and the “MIC Escherichia coli” value (Escherichia coli) was 62.5 µg/mL (≈ 146 µM). For the same molecule, the “MIC Klebsiella pneumoniae” value (Klebsiella pneumoniae) was 62.5 µg/mL (≈ 146 µM), the “MIC Salmonella Typhimurium” value (Salmonella Typhimurium) was 62.5 µg/mL (≈ 146 µM) and the “MIC T. mentagrophytes” value (T. mentagrophytes) was 12.5 µg/mL (≈ 29.3 µM). For the same molecule, the “MIC Aspergillus niger” value (Aspergillus niger) was 100 µg/mL (≈ 234 µM), the “Antimicrobial activity against two Gram-positive and three Gram-negative bacteria” value [3] was “moderate antimicrobial activity” and the “Cytotoxicity MCF-7” value (MCF-7) was “inactive”. For the same molecule, the “Cytotoxicity MRC-5” value (MRC-5) was “inactive”.
